Reference: article PMC8286840, “Identifying SARS-CoV-2 antiviral compounds by screening for small molecule inhibitors of Nsp3 papain-like protease” (Biochemical Journal, 2021)
Where a name gives a salt, the structure may show the parent alone. Read-outs that look alike come from different tables or passages of the source.

Key:
[1] = target: T1, SARS-CoV-2 PLpro (nsp3 1564–1878) (Severe acute respiratory syndrome coronavirus 2, UniProt P0DTD1); test: biochemical; parameters: FRET-quenched peptide (Pro3) cleavage by PLpro, 10 min pre-incubation, slope over 20 min, normalised to no-compound control; conditions: low concentration screen, read-out: % of control remaining
[2] = target: T1, SARS-CoV-2 PLpro (nsp3 1564–1878); test: biochemical; parameters: FRET-quenched peptide (Pro3) cleavage by PLpro, 10 min pre-incubation, slope over 20 min, normalised to no-compound control; conditions: high concentration screen, read-out: % of control remaining

CCN(CC)C(=O)/C(C#N)=C/c1cc(O)c(O)c([N+](=O)[O-])c1 [Entacapone]
remaining activity at 1.25 µM ([1]; Well no.=1888): 96.2%
remaining activity at 3.75 µM ([2]; Well no.=1888): 93%

C=C1[C@H](CO)[C@@H](O)C[C@@H]1n1cnc2c(=O)[nH]c(N)nc21 [Entecavir hydrate]
remaining activity at 1.25 µM ([1]; Well no.=5147): 93.9%
remaining activity at 3.75 µM ([2]; Well no.=5147): 95.5%

Cn1cc(C2=C(c3cn(C4CCN(Cc5ccccn5)CC4)c4ccccc34)C(=O)NC2=O)c2ccccc21 [Enzastaurin (LY317615)]
remaining activity at 1.25 µM ([1]; Well no.=5003): 93%
remaining activity at 3.75 µM ([2]; Well no.=5003): 87.9%

NS(=O)(=O)NCCNc1nonc1/C(=N/O)Nc1ccc(F)c(Br)c1 [Epacadostat (INCB024360)]
remaining activity at 1.25 µM ([1]; Well no.=8722): 99.6%
remaining activity at 3.75 µM ([2]; Well no.=8722): 95.9%

NS(=O)(=O)NCCNc1nonc1/C(=N/O)Nc1ccc(F)c(Br)c1 [Epacadostat]
remaining activity at 1.25 µM ([1]; Well no.=8415): 99.9%
remaining activity at 3.75 µM ([2]; Well no.=8415): 95.7%

CC(/C=C1\SC(=S)N(CC(=O)O)C1=O)=C\c1ccccc1 [Epalrestat]
remaining activity at 1.25 µM ([1]; Well no.=5046): 100%
remaining activity at 3.75 µM ([2]; Well no.=5046): 104%

C[C@]12CC[C@H](O)C[C@@H]1CC[C@@H]1[C@@H]2CC[C@]2(C)C(=O)CC[C@@H]12 [Epiandrosterone]
remaining activity at 1.25 µM ([1]; Well no.=6441): 103%
remaining activity at 3.75 µM ([2]; Well no.=6441): 103%

COc1cc2c(cc1OC)-c1cc3ccc4c(c3c[n+]1CC2)OCO4 [Epiberberine (chloride)]
remaining activity at 1.25 µM ([1]; Well no.=8339): 91.9%
remaining activity at 3.75 µM ([2]; Well no.=8339): 91.9%

CC(C)C[C@H](NC(=O)[C@H](O)[C@H](N)Cc1ccccc1)C(=O)O [Epibestatin hydrochloride]
remaining activity at 1.25 µM ([1]; Well no.=692): 96.8%
remaining activity at 3.75 µM ([2]; Well no.=692): 93.6%

O=C(O[C@@H]1Cc2c(O)cc(O)cc2O[C@@H]1c1cc(O)c(O)c(O)c1)c1cc(O)c(O)c(O)c1 [Epigallocatechin gallate]
remaining activity at 1.25 µM ([1]; Well no.=3895): 98.4%
remaining activity at 3.75 µM ([2]; Well no.=3895): 101%

Oc1cc(O)c2c(c1)O[C@H](c1cc(O)c(O)c(O)c1)[C@H](O)C2 [Epigallocatechin]
remaining activity at 1.25 µM ([1]; Well no.=3277): 102%
remaining activity at 3.75 µM ([2]; Well no.=3277): 101%

NC1=NCC2c3ccccc3Cc3ccccc3N12 (stereo not drawn) [Epinastine]
remaining activity at 1.25 µM ([1]; Well no.=6611): 96%
remaining activity at 3.75 µM ([2]; Well no.=6611): 94.8%

CNC[C@H](O)c1ccc(O)c(O)c1 [Epinephrine bitartrate (Adrenalinium)]
remaining activity at 1.25 µM ([1]; Well no.=5254): 105%
remaining activity at 3.75 µM ([2]; Well no.=5254): 101%

COc1cccc2c1C(=O)c1c(O)c3c(c(O)c1C2=O)C[C@@](O)(C(=O)CO)C[C@@H]3O[C@H]1C[C@H](N)[C@@H](O)[C@H](C)O1 [Epirubicin HCl]
remaining activity at 1.25 µM ([1]; Well no.=5141): 106%
remaining activity at 3.75 µM ([2]; Well no.=5141): 107%

COC(=O)[C@@H]1CC2=CC(=O)CC[C@]2(C)[C@@]23O[C@@H]2C[C@@]2(C)[C@@H](CC[C@@]24CCC(=O)O4)[C@H]13 [Eplerenone]
remaining activity at 1.25 µM ([1]; Well no.=5343): 97.5%
remaining activity at 3.75 µM ([2]; Well no.=5343): 96.5%

C/C(=C\c1csc(C)n1)[C@@H]1C[C@@H]2O[C@@H]2CCC[C@H](C)[C@H](O)[C@@H](C)C(=O)C(C)(C)[C@@H](O)CC(=O)O1 [Epothilone A]
remaining activity at 1.25 µM ([1]; Well no.=5157): 95.3%
remaining activity at 3.75 µM ([2]; Well no.=5157): 93.4%

CCCCCCCC[C@H]1O[C@H]1CCCCCCCC(=O)O [Epoxy-oleic acid]
remaining activity at 1.25 µM ([1]; Well no.=4569): 96.6%
remaining activity at 3.75 µM ([2]; Well no.=4569): 103%

CCCCc1ncc(/C=C(\Cc2cccs2)C(=O)O)n1Cc1ccc(C(=O)O)cc1 [Eprosartan (mesylate)]
remaining activity at 1.25 µM ([1]; Well no.=8191): 105%
remaining activity at 3.75 µM ([2]; Well no.=8191): 105%

CCCCc1ncc(/C=C(\Cc2cccs2)C(=O)O)n1Cc1ccc(C(=O)O)cc1 [Eprosartan mesylate]
remaining activity at 1.25 µM ([1]; Well no.=1882): 98.4%
remaining activity at 3.75 µM ([2]; Well no.=1882): 99.1%

Oc1ccc([C@H]2COc3cc(O)ccc3C2)cc1 [Equol]
remaining activity at 1.25 µM ([1]; Well no.=5252): 99.7%
remaining activity at 3.75 µM ([2]; Well no.=5252): 99.3%

CCOc1ccccc1-n1c(C(C)N2CCN(C(=O)COc3ccc(Cl)cc3)CC2)nc2ccccc2c1=O (stereo not drawn) [Erastin]
remaining activity at 1.25 µM ([1]; Well no.=6732): 98.2%
remaining activity at 3.75 µM ([2]; Well no.=6732): 96.5%
